Experiments:
[1] = Digestibility of GHB oligomers in normal rats: serum GHB after gavage (GC-MS); details: for time for serum GHB to decrease to baseline values / be absorbed and cleared from the circulation: after gavage with GHB monomer
[2] = cited from earlier work
sleep = details: rat, large dose; cited from earlier work
[3] = male, Sprague-Dawley, rat, serum, oral, 50 mg/kg

Structure (SMILES): O=C(O)CCCO [GHB Monomer, Gamma-hydroxybutyrate]
- concentration at 0.5 h [1, 3]: 182 ± 158 µM
- concentration at 1 h [1, 3]: 23.2 ± 2.05 µM
- concentration at 2 h [1, 3]: 12.8 ± 2.62 µM
- concentration at 4 h [1, 3]: 14.9 ± 3.31 µM
- GHB Monomer [GHB] concentration of GHB in serum ([1]; rat serum, 0.5 hr after gavage with 50 mg/kg sodium GHB monomer in TWEEN, 50 mg/kg): 182 ± 158 µM
- time for serum GHB to decrease to baseline values / be absorbed and cleared from the circulation ([1]; rat, listed as GHB monomer): ≤ 2 h
- time for serum GHB to decrease to baseline values / be absorbed and cleared from the circulation ([1]; rat, listed as monomer): 1 to 2 h
- time of peak plasma concentration ([2]; after oral administration): 20 to 60 min
- half-life of GHB ([2]; in vivo): 35 min

Structure (SMILES): CCOC(=O)CCCOC(C)=O [ethyl 4-acetoxybutanoate]
- sleep duration (sleep): four
